From ChEMBL document CHEMBL3991601, “The target landscape of clinical kinase drugs” (Science, 2017)
Activity calls are given as the source filed them. Rule as the data show it, for most assays here: actives have a measured Kd and inactives only a lower limit.

Assays:
[1] = biological target: T1, Activin receptor type-1 (Homo sapiens, UniProt Q04771)
T1 sequence (Q04771 whole entry): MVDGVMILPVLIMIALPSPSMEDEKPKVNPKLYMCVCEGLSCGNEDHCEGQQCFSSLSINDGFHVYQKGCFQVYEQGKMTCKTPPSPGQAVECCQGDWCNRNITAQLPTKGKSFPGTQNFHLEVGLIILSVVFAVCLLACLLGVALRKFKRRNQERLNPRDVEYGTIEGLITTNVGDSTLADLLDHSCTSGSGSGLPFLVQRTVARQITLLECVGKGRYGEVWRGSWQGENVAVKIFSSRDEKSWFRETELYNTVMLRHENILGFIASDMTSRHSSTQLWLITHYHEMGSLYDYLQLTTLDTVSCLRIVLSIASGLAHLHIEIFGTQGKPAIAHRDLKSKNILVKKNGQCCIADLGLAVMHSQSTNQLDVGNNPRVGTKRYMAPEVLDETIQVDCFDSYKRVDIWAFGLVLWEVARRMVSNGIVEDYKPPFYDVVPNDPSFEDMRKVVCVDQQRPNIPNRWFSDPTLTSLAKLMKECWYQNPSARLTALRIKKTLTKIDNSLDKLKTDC

[2] = biological target: T2, Serine/threonine-protein kinase A-Raf (Homo sapiens, UniProt P10398)
T2 sequence (P10398 whole entry): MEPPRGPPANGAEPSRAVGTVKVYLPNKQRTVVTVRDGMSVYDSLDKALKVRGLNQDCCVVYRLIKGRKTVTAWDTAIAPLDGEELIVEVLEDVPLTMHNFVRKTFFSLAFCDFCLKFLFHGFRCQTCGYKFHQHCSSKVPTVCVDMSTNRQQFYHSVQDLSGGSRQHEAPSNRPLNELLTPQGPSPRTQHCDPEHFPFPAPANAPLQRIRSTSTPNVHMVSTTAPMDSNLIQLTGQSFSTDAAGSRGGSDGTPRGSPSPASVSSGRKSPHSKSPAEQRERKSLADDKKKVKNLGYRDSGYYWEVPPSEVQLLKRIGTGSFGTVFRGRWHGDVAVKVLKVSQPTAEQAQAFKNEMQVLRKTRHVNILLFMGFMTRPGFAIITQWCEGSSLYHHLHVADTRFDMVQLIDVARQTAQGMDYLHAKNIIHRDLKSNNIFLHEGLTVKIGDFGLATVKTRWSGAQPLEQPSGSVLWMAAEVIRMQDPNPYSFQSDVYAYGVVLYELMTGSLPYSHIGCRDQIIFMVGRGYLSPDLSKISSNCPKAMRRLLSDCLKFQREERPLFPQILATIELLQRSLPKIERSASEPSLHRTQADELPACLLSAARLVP

[3] = biological target: T3, Mitogen-activated protein kinase 15 (Homo sapiens, UniProt Q8TD08)
T3 sequence (Q8TD08 whole entry): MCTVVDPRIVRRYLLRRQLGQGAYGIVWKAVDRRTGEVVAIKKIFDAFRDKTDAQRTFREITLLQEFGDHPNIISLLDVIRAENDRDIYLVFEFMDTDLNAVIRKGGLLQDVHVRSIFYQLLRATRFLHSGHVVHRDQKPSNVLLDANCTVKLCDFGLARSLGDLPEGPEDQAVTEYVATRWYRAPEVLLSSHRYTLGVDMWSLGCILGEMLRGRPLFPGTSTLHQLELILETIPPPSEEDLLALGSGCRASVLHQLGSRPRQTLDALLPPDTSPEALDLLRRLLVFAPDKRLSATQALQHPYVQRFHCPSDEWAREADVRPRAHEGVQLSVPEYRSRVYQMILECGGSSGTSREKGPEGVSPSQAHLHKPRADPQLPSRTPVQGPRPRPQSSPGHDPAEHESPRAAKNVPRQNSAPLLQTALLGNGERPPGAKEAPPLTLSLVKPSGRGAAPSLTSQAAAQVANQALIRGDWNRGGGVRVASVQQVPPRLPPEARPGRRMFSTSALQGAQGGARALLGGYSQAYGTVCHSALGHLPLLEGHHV

[4] = biological target: Serine/threonine-protein kinase SIK3 (Homo sapiens, UniProt Q9Y2K2)
Serine/threonine-protein kinase SIK3, sequence (Q9Y2K2 whole entry): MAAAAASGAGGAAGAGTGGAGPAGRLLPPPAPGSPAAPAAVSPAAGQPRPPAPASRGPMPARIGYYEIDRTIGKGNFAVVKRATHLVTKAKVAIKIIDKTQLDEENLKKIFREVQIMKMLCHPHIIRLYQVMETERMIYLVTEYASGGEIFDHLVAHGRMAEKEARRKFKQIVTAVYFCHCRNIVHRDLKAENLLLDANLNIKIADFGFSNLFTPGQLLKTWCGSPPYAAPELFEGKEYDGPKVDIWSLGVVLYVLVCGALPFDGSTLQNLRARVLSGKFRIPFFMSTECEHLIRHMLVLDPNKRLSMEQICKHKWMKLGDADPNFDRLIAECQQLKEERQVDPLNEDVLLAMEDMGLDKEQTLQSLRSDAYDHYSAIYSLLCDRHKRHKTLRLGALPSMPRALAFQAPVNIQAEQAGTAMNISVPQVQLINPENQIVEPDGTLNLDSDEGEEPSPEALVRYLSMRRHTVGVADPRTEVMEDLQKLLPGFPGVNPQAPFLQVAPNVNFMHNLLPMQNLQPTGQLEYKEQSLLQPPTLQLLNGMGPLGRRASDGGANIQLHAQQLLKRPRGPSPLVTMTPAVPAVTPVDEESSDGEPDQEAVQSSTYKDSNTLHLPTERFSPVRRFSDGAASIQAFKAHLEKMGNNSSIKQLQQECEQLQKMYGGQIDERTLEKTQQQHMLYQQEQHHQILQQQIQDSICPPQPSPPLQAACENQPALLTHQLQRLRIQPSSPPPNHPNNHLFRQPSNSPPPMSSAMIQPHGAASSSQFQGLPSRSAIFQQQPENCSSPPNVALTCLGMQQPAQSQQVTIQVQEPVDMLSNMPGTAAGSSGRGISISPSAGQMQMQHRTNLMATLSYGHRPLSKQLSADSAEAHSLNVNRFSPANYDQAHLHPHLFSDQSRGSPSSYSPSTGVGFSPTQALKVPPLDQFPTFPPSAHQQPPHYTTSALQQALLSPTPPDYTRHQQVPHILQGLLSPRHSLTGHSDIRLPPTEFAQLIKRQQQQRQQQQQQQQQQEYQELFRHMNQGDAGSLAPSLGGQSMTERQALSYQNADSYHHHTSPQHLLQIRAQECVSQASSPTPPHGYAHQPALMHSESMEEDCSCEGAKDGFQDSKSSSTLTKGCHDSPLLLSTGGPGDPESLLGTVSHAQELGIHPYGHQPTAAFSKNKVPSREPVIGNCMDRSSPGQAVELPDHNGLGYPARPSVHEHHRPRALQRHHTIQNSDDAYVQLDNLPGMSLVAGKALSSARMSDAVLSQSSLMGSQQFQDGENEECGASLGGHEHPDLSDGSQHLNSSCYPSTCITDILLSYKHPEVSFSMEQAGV

[5] = biological target: T4, Serine/threonine-protein kinase TAO3 (Homo sapiens, UniProt Q9H2K8)
T4 sequence (Q9H2K8 whole entry): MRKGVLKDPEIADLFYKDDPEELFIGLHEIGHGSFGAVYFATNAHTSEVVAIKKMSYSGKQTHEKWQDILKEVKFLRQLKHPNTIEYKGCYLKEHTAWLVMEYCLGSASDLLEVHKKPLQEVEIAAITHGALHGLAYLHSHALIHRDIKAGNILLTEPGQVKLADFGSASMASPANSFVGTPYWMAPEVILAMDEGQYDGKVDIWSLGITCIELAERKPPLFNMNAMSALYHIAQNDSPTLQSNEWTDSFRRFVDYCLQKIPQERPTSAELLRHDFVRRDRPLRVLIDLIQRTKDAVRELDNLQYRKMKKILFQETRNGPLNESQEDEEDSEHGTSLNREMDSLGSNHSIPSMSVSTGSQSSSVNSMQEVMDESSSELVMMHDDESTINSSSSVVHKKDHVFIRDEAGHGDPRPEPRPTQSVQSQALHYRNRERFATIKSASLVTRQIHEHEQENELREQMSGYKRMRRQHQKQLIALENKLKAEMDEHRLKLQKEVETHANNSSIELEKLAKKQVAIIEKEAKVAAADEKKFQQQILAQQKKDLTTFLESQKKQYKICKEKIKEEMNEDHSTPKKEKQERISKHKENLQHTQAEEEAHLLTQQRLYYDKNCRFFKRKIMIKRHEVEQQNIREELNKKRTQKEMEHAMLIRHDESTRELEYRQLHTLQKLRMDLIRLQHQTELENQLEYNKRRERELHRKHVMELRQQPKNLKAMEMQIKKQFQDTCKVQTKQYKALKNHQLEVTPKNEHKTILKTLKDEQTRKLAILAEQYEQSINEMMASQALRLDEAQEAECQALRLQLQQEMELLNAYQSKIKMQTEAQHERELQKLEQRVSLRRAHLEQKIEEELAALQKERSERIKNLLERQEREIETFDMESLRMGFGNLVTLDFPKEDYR

[6] = biological target: Mitogen-activated protein kinase kinase kinase 20 (Homo sapiens, UniProt Q9NYL2)
Mitogen-activated protein kinase kinase kinase 20, sequence (Q9NYL2 whole entry): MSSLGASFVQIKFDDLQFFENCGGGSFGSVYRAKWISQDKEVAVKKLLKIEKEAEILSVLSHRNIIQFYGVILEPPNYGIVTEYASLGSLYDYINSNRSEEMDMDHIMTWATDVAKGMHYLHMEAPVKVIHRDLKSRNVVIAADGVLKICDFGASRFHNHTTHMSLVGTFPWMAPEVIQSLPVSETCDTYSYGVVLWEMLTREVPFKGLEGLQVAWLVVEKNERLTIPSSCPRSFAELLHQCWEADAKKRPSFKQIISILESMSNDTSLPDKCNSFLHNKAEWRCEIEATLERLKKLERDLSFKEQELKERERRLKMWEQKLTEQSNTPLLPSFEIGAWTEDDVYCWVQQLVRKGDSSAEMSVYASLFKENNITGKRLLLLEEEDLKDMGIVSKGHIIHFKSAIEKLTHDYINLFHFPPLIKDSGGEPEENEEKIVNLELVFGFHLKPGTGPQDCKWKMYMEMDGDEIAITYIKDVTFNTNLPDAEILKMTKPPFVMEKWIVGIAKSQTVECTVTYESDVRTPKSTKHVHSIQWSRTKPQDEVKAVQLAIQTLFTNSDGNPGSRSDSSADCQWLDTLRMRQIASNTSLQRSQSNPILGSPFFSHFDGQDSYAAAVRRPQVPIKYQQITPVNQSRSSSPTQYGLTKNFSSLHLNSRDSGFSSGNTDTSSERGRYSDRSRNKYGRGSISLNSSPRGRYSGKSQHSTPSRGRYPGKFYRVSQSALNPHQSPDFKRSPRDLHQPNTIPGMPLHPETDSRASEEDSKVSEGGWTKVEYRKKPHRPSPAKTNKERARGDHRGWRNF
Also: in the data inactive means no Kd found up to 30 µM.

## COc1cc2nccc(Oc3ccc(NC(=O)C4(C(=O)Nc5ccc(F)cc5)CC4)cc3)c2cc1OC [CABOZANTINIB]
[1]
  Kd: > 30 µM (inactive)
[2]
  Kd: > 30 µM (inactive)
[3]
  Kd: > 30 µM (inactive)
[4]
  Kd: > 30 µM (inactive)
[5]
  Kd: > 30 µM (inactive)
[6]
  Kd: > 30 µM (inactive)

## O=C(Nc1ccc(OC(F)(F)F)cc1)c1sccc1NCc1ccnc2ccccc12 [OSI-930]
[1]
  Kd: > 30 µM (inactive)
[2]
  Kd: > 30 µM (inactive)
[3]
  Kd: > 30 µM (inactive)
[4]
  Kd: > 30 µM (inactive)
[5]
  Kd: > 30 µM (inactive)
[6]
  Kd: 7.73 µM (active)

## Cc1cc(Nc2nc(N[C@@H](C)c3ncc(F)cn3)ncc2Cl)n[nH]1 [AZD-1480]
[1]
  Kd: > 30 µM (inactive)
[2]
  Kd: > 30 µM (inactive)
[3]
  Kd: > 30 µM (inactive)
[4]
  Kd: > 30 µM (inactive)
[5]
  Kd: > 30 µM (inactive)
[6]
  Kd: > 30 µM (inactive)

## COc1cccc(Nc2ncnn3ccc(CN4CC[C@@H](N)[C@H](O)C4)c23)c1 [BMS-690514]
[1]
  Kd: > 30 µM (inactive)
[2]
  Kd: > 30 µM (inactive)
[3]
  Kd: > 30 µM (inactive)
[4]
  Kd: > 30 µM (inactive)
[5]
  Kd: > 30 µM (inactive)
[6]
  Kd: 0.282 µM (active)

## COc1cc2ncnc3c2cc1OCCCCCN(C)Cc1ccc(Br)cc1N3 [JNJ-26483327]
[1]
  Kd: > 30 µM (inactive)
[2]
  Kd: > 30 µM (inactive)
[3]
  Kd: > 30 µM (inactive)
[4]
  Kd: > 30 µM (inactive)
[5]
  Kd: > 30 µM (inactive)
[6]
  Kd: > 30 µM (inactive)

## CCc1cc2c(cc1N1CCC(N3CCOCC3)CC1)C(C)(C)c1[nH]c3cc(C#N)ccc3c1C2=O [ALECTINIB]
[1]
  Kd: > 30 µM (inactive)
[2]
  Kd: > 30 µM (inactive)
[3]
  Kd: > 30 µM (inactive)
[4]
  Kd: > 30 µM (inactive)
[5]
  Kd: > 30 µM (inactive)
[6]
  Kd: > 30 µM (inactive)

## CN(c1ncccc1CNc1nc(Nc2ccc3c(c2)CC(=O)N3)ncc1C(F)(F)F)S(C)(=O)=O [PF-00562271]
[2]
  Kd: > 30 µM (inactive)
[3]
  Kd: 1.47 µM
[4]
  Kd: > 30 µM (inactive)
[5]
  Kd: 11.9 µM (active)

## CNC(=O)c1cccc(-c2ccc3c(N4CCOC[C@@H]4C)nc(N4CCOC[C@@H]4C)nc3n2)c1 [VISTUSERTIB]
[1]
  Kd: > 30 µM (inactive)
[2]
  Kd: > 30 µM (inactive)
[3]
  Kd: > 30 µM (inactive)
[4]
  Kd: > 30 µM (inactive)
[5]
  Kd: > 30 µM (inactive)
[6]
  Kd: > 30 µM (inactive)

## C=CCn1c(=O)c2cnc(Nc3ccc(N4CCN(C)CC4)cc3)nc2n1-c1cccc(C(C)(C)O)n1 [ADAVOSERTIB]
[1]
  Kd: > 30 µM (inactive)
[2]
  Kd: > 30 µM (inactive)
[3]
  Kd: > 30 µM (inactive)
[4]
  Kd: > 30 µM (inactive)
[5]
  Kd: > 30 µM (inactive)
[6]
  Kd: > 30 µM (inactive)

## CNC(=O)c1cc(COc2nnc(Nc3ccc(Cl)cc3)c3ccoc23)ccn1 [TELATINIB]
[1]
  Kd: > 30 µM (inactive)
[2]
  Kd: > 30 µM (inactive)
[3]
  Kd: > 30 µM (inactive)
[4]
  Kd: > 30 µM (inactive)
[5]
  Kd: > 30 µM (inactive)
[6]
  Kd: 0.477 µM

## COc1cc2c(Oc3ccc4[nH]c(C)cc4c3F)ncnc2cc1OCCCN1CCCC1 [CEDIRANIB]
[2]
  Kd: > 30 µM (inactive)

## Cn1c(=O)c(F)c(Nc2ccc(I)cc2F)c2c(=O)n(C[C@@H](O)CO)cnc21 [TAK-733]
[1]
  Kd: > 30 µM (inactive)
[2]
  Kd: > 30 µM (inactive)
[3]
  Kd: > 30 µM (inactive)
[4]
  Kd: > 30 µM (inactive)
[5]
  Kd: > 30 µM (inactive)
[6]
  Kd: > 30 µM (inactive)

## CC[C@@](C)(Nc1ccnc(-c2c[nH]c3ncccc23)n1)C(=O)NCC(F)(F)F [DECERNOTINIB]
[1]
  Kd: > 30 µM (inactive)
[2]
  Kd: > 30 µM (inactive)
[3]
  Kd: > 30 µM (inactive)
[4]
  Kd: > 30 µM (inactive)
[5]
  Kd: 7.87 µM (active)
[6]
  Kd: > 30 µM (inactive)

## Cc1cc(-c2cc(OC(=O)c3ccccc3)ccc2Cl)cc2nnc(Nc3ccc(OCCN4CCCC4)cc3)nc12 [TG100-801]
[1]
  Kd: > 30 µM (inactive)
[2]
  Kd: > 30 µM (inactive)
[3]
  Kd: > 30 µM (inactive)
[4]
  Kd: > 30 µM (inactive)
[5]
  Kd: > 30 µM (inactive)
[6]
  Kd: > 30 µM (inactive)

## N#CCNC(=O)c1ccc(-c2ccnc(Nc3ccc(N4CCOCC4)cc3)n2)cc1 [MOMELOTINIB]
[1]
  Kd: > 30 µM (inactive)
[2]
  Kd: > 30 µM (inactive)
[3]
  Kd: > 30 µM (inactive)
[4]
  Kd: 0.859 µM (active)

## CC1(C)CNc2cc(NC(=O)c3cccnc3NCc3ccncc3)ccc21 [MOTESANIB]
[2]
  Kd: > 30 µM (inactive)

## NC[C@@](O)(c1ccc(Cl)cc1)c1ccc(-c2cn[nH]c2)cc1 [AT-13148]
[1]
  Kd: > 30 µM (inactive)
[3]
  Kd: > 30 µM (inactive)
[4]
  Kd: > 30 µM (inactive)
[5]
  Kd: > 30 µM (inactive)
[6]
  Kd: > 30 µM (inactive)

## CCOc1ccn(-c2ccc(F)cc2)c(=O)c1C(=O)Nc1ccc(Oc2ccnc(N)c2Cl)c(F)c1 [BMS-777607]
[1]
  Kd: > 30 µM (inactive)
[3]
  Kd: > 30 µM (inactive)
[4]
  Kd: > 30 µM (inactive)
[5]
  Kd: > 30 µM (inactive)
[6]
  Kd: > 30 µM (inactive)

## CN(C)C/C=C/C(=O)Nc1cc2c(Nc3ccc(F)c(Cl)c3)ncnc2cc1O[C@H]1CCOC1 [AFATINIB]
[2]
  Kd: > 30 µM (inactive)

## Cn1cnc2c(F)c(Nc3ccc(Br)cc3Cl)c(C(=O)NOCCO)cc21 [SELUMETINIB]
[2]
  Kd: > 30 µM (inactive)

## COc1cc2c(N3CCN(C(=O)Nc4ccc(OC(C)C)cc4)CC3)ncnc2cc1OCCCN1CCCCC1 [TANDUTINIB]
[2]
  Kd: > 30 µM (inactive)

## CCN(CCCOc1ccc2c(Nc3cc(CC(=O)Nc4cccc(F)c4)n[nH]3)ncnc2c1)CCOP(=O)(O)O [BARASERTIB]
[3]
  Kd: > 30 µM (inactive)
[4]
  Kd: > 30 µM (inactive)
[5]
  Kd: > 30 µM (inactive)
[6]
  Kd: > 30 µM (inactive)

## C[C@@]1(C(=O)Nc2ccc(F)nc2)CCCN1c1nc(Nc2cc(C3CC3)n[nH]2)c2cccn2n1 [BMS-754807]
[2]
  Kd: > 30 µM (inactive)

## CC(C)CC(=O)Nc1[nH]nc2c1CN(C(=O)C1CCN(C)CC1)C2(C)C [PHA-793887]
[1]
  Kd: > 30 µM (inactive)
[2]
  Kd: > 30 µM (inactive)
[3]
  Kd: 0.264 µM (active)
[4]
  Kd: > 30 µM (inactive)
[6]
  Kd: > 30 µM (inactive)

## C[C@]1(O)C[C@@H](c2nc(-c3ccc4ccc(-c5ccccc5)nc4c3)c3c(N)nccn32)C1 [LINSITINIB]
[1]
  Kd: > 30 µM (inactive)
[2]
  Kd: > 30 µM (inactive)
[3]
  Kd: > 30 µM (inactive)
[4]
  Kd: > 30 µM (inactive)
[5]
  Kd: > 30 µM (inactive)
